# Laboratory results published in EP2061765B1, “Serine-threonine protein kinase and PARP modulators” (Senhwa Biosciences, Inc., priority 2006, dated 2008).
# What was measured:
# Test in all cases: Cell proliferation assay (Alamar Blue)
# Assay type in all cases: cell-based
# MDAMB231 = conditions: Homo sapiens, MDA-MB-231, 96 h, MDAMB231 cells, four days
# Protocol: (§1) A representative cell-proliferation assay protocol using Alamar Blue dye (stored at 4°C, use 20ul per well) is described hereafter. 96-well plate setup and compound treatment • a. Split and trypsinize cells. • b. Count cells using hemocytometer. • c. Plate 4,000-5,000 cells per well in 100 µl of medium and seed into a 96-well plate according to the following plate layout. Add cell culture medium only to wells B10 to B12. Wells B1 to B9 have cells but no compound added. [formula] [formula] • d. Add 100 µl of 2X drug dilution to each well in a concentration shown in the plate layout above. At the same time, add 100 µl of media into the control wells (wells B10 to B12). Total volume is 200 µl/well. • e. Incubate four (4) days at 37°C, 5% CO2 in a humidified incubator. • f. Add 20µl Alamar Blue reagent to each well. • g. Incubate for four (4) hours at 37°C, 5% CO2 in a humidified incubator. • h. Record fluorescence at an excitation wavelength of 544nm and emission wavelength of 590nm using a microplate reader.
# (§2) In the assays, cells are cultured with a test compound for approximately four days, the dye then is added to the cells and fluorescence of […] dye is detected after approximately four hours. Different types of cells can be utilized in the assays (e.g., HCT-116 human colorectal carcinoma cells, PC-3 human prostatic cancer cells and MiaPaca human pancreatic carcinoma cells). Anti-proliferative effects of representative compounds are provided hereafter.
# HCT-116 = conditions: Homo sapiens, 96 h, HCT-116 cells, four days
# Jurkat = conditions: Homo sapiens, 96 h, Jurkat cells, four days
# Protocol: as §1, §2
# MiaPaCa = conditions: Homo sapiens, MIA PaCa-2, 96 h, MiaPaCa cells, four days
# Protocol: as §1, §2
Structure (SMILES),IC50 (MDAMB231) [µM],IC50 (HCT-116) [µM],IC50 (Jurkat) [µM],IC50 (MiaPaCa) [µM]
Cc1ncc2c(n1)c(Nc1cccc(Cl)c1)nc1cc(C(=O)O)ccc12 [drawing 422],5.48,,,
CNc1ncc2c(n1)c(Nc1ccc(F)c(Cl)c1)nc1cc(C(=O)O)ccc12 [drawing 414],15.8,,,
O=C(O)c1ccc2c(c1)nc(Nc1cccc(C(F)(F)F)c1)c1ncncc12 [drawing 406],2.93,,,
Nc1ncc2c(n1)c(Nc1cccc(Cl)c1)nc1cc(C(=O)O)ccc12 [drawing 410],4.12,,,
O=C(O)c1ccc2c(c1)nc(Nc1ccc(Cl)c(C(F)(F)F)c1)c1ccncc12 [drawing 404],4.43,,,
O=C(O)c1ccc2c(c1)nc(Nc1ccccc1)c1nc(NCCCN3CCOCC3)ncc12 [drawing 397],> 50,,,
CCCNc1ncc2c(n1)c(Nc1ccccc1)nc1cc(C(=O)O)ccc12 [drawing 390],18.2,,,
O=C(O)c1ccc2c(c1)nc(Nc1ccc(F)c(Cl)c1)c1ncncc12 [drawing 374],1.11,,,
CCOc1ncc2c(n1)c(Nc1cccc(C(F)(F)F)c1)nc1cc(C(=O)O)ccc12 [drawing 407],26.5,,,
O=C(O)c1ccc2c(c1)nc(Nc1ccccc1)c1nc(NC3CCNCC3)ncc12 [drawing 394],> 50,,,
NC(=O)CCNc1ncc2c(n1)c(Nc1cccc(Cl)c1)nc1cc(C(=O)O)ccc12 [drawing 425],> 50,,,
CCOC(=O)CCNC(=O)c1ccc2c(c1)nc(Nc1cccc(C(F)(F)F)c1)c1nc(NC3CC3)ncc12 [drawing 442],2.52,,,
COC(=O)c1ccc2c(c1)nc(Nc1cccc(Cl)c1)c1nc(NCCC(N)=O)ncc12 [drawing 353],,> 10,4.41,17.1
C#Cc1cccc(Nc2nc3cc(C(=O)O)ccc3c3cnc(NCCCN4CCOCC4)nc23)c1 [drawing 402],12.5,,,
O=C(O)c1ccc2c(c1)nc(Nc1ccc(F)c(Cl)c1)c1nc(NCc3cccnc3)ncc12 [drawing 438],5.48,,,
C#Cc1cccc(Nc2nc3cc(C(=O)O)ccc3c3cnc(NC4CCNCC4)nc23)c1 [drawing 330],,> 10,9.55,8.62
COc1cccc(Nc2nc3cc(C(=O)O)ccc3c3cnc(NC4CC4)nc23)c1 [drawing 360],,> 10,3.44,2.85
CNC(=O)c1ccc2c(c1)nc(Nc1cccc(C(F)(F)F)c1)c1nc(NC3CC3)ncc12 [drawing 437],10.5,,,
O=C(O)c1ccc2c(c1)nc(Nc1ccccc1)c1nc(NCCCO)ncc12 [drawing 393],48.2,,,
CCOC(=O)CCNC(=O)c1ccc2c(c1)nc(Nc1cccc(C(F)(F)F)c1)c1nc(NC3CC3)ncc12 [drawing 371],,> 10,3.75,0.33

Structure (SMILES),IC50 (MDAMB231) [µM],IC50 (HCT-116) [µM],IC50 (Jurkat) [µM],IC50 (MiaPaCa) [µM]
CN(C)c1ncc2c(n1)c(Nc1cccc(Cl)c1)nc1cc(C(=O)O)ccc12 [drawing 409],9.82,,,
O=C(O)c1ccc2c(c1)nc(Nc1ccc(F)c(Cl)c1)c1nc(NC3CC3)ncc12 [drawing 345],,> 10,1.54,0.37
O=C(O)c1ccc2c(c1)nc(Nc1cccc(C(F)(F)F)c1)c1ccncc12 [drawing 428],13,,,
CCOc1ncc2c(n1)c(Nc1cccc(C(F)(F)F)c1)nc1cc(C(=O)O)ccc12 [drawing 336],,> 10,35.9,18.1
COCCNc1ncc2c(n1)c(Nc1ccc(F)c(Cl)c1)nc1cc(C(=O)O)ccc12 [drawing 346],,> 10,0.41,1.08
COCCNc1ncc2c(n1)c(Nc1ccc(F)c(Cl)c1)nc1cc(C(=O)O)ccc12 [drawing 417],12.6,,,
COC(=O)c1ccc2c(c1)nc(Nc1cccc(Cl)c1)c1nc(NCCC(N)=O)ncc12 [drawing 424],27.2,,,
C#Cc1cccc(Nc2nc3cc(C(=O)O)ccc3c3cnc(NCCC)nc23)c1 [drawing 399],10.4,,,
C#Cc1cccc(Nc2nc3cc(C(=O)O)ccc3c3cnc(NC4CC4)nc23)c1 [drawing 327],,7.3,1.27,1.2
NC(=O)CCNc1ncc2c(n1)c(Nc1cccc(Cl)c1)nc1cc(C(=O)O)ccc12 [drawing 354],,> 10,37.7,> 50
O=C(O)c1ccc2c(c1)nc(Nc1cccc(C(F)(F)F)c1)c1nc(NC3CC3)ncc12 [drawing 412],9.19,,,
COC(CNc1ncc2c(n1)c(Nc1ccc(F)c(Cl)c1)nc1cc(C(=O)O)ccc12)OC [drawing 363],,> 10,1.12,3.41
NC(=O)c1ccc2c(c1)nc(Nc1cccc(C(F)(F)F)c1)c1nc(NC3CC3)ncc12 [drawing 435],> 50,,,
Cc1cccc(Nc2nc3cc(C(=O)O)ccc3c3cnccc23)c1 [drawing 427],17.5,,,
O=C(O)c1ccc2c(c1)nc(Nc1ccccc1)c1nc(NC3CC3)ncc12 [drawing 389],0.73,,,
Cc1ncc2c(n1)c(Nc1cccc(Cl)c1)nc1cc(C(=O)O)ccc12 [drawing 351],,> 10,4.95,5.39
C#Cc1cccc(Nc2nc3cc(C(=O)O)ccc3c3cnc(NC)nc23)c1 [drawing 332],,4.69,1.29,2.34
Nc1ncc2c(n1)c(Nc1cccc(Cl)c1)nc1cc(C(=O)O)ccc12 [drawing 339],,> 10,1.14,0.88
CC(C)Nc1ncc2c(n1)c(Nc1cccc(Cl)c1)nc1cc(C(=O)O)ccc12 [drawing 340],,> 10,18.4,5.45
C#Cc1cccc(Nc2nc3cc(C(=O)O)ccc3c3cnc(NCCCN4CCOCC4)nc23)c1 [drawing 331],,> 10,3.69,2.26

Structure (SMILES),IC50 (MDAMB231) [µM],IC50 (HCT-116) [µM],IC50 (Jurkat) [µM],IC50 (MiaPaCa) [µM]
CNC(=O)c1ccc2c(c1)nc(Nc1cccc(C(F)(F)F)c1)c1nc(NC3CC3)ncc12 [drawing 366],,> 10,3.65,11.9
C#Cc1cccc(Nc2nc3cc(C(=O)O)ccc3c3cnc(NCCCOCC)nc23)c1 [drawing 348],,> 10,0.39,0.87
C#Cc1cccc(Nc2nc3cc(C(=O)O)ccc3c3cnc(NCCC)nc23)c1 [drawing 328],,> 10,2.67,2.32
O=C(O)c1ccc2c(c1)nc(Nc1ccc(F)c(Cl)c1)c1nc(NCc3ccccn3)ncc12 [drawing 362],,> 10,2.59,8.21
C#Cc1cccc(Nc2nc3cc(C(=O)O)ccc3c3cnc(NCCOCC)nc23)c1 [drawing 347],,> 10,1.13,0.62
COCCNc1ncc2c(n1)c(Nc1ccccc1)nc1cc(C(=O)O)ccc12 [drawing 320],,> 10,5.8,3.2
CN(C)CCNc1ncc2c(n1)c(Nc1ccc(F)c(Cl)c1)nc1cc(C(=O)O)ccc12 [drawing 361],,> 10,1.25,2.14
O=C(O)c1ccc2c(c1)nc(Nc1cccc(F)c1)c1nc(NC3CC3)ncc12 [drawing 359],,> 10,3.56,3.27
O=C(O)c1ccc2c(c1)nc(Nc1cccc(C(F)(F)F)c1)c1ccncc12 [drawing 357],,5.14,3.15,8.55
CCN(CC)CCNc1ncc2c(n1)c(Nc1ccccc1)nc1cc(C(=O)O)ccc12 [drawing 324],,> 10,13.1,1.45
O=C(O)c1ccc2c(c1)nc(Nc1ccc(Cl)c(C(F)(F)F)c1)c1ccncc12 [drawing 333],,3.99,3.05,9.09
C#Cc1cccc(Nc2nc3cc(C(=O)O)ccc3c3cnc(NCCOC)nc23)c1 [drawing 329],,8.05,0.94,1
O=C(O)c1ccc2c(c1)nc(Nc1ccccc1)c1nc(NCCO)ncc12 [drawing 321],,> 10,26.1,16.2
O=C(O)c1ccc2c(c1)nc(Nc1ccccc1)c1nc(NCCCO)ncc12 [drawing 322],,> 10,7.9,11.9
O=C(O)c1ccc2c(c1)nc(Nc1ccc(F)c(Cl)c1)c1nc(NCc3cccnc3)ncc12 [drawing 367],,> 10,1.5,1.97
O=C(O)c1ccc2c(c1)nc(Nc1ccccc1)c1nc(NC3CC3)ncc12 [drawing 318],,1.94,2.42,0.68
C#Cc1cccc(Nc2nc3cc(C(=O)O)ccc3c3cnc(NCCCOC(C)C)nc23)c1 [drawing 349],,> 10,2.37,2.01
O=C(O)c1ccc2c(c1)nc(Nc1cccc(Cl)c1)c1nc(NC3CC3)ncc12 [drawing 334],,7.82,1.29,0.47
Nc1ncc2c(n1)c(Nc1ccc(F)c(Cl)c1)nc1cc(C(=O)O)ccc12 [drawing 344],,11.2,4.34,0.95
